Among the data in US20240197828A1, “Chimeric molecule to treat sepsis and other inflammatory conditions” (THE FEINSTEIN INSTITUTES FOR MEDICAL RESEARCH, priority 2022, published 2024) are mortality and observed phenotypic effects values, retold here.

For the data set, the system named is WT mice. Nature of the data set: CLP-induced sepsis, 10-day survival. It counts as in vivo, mouse. The method, then: FIG. 6A-6M: MOP3 ameliorates inflammation, lung injury, and improves survival in sepsis. WT mice subjected to CLP-induced sepsis with MOP3 treatment (10 μg/kg) or vehicle (volume-equivalent). After 20 hours, blood and lung tissue collected for respective analyses. (A-C) Serum was analyzed for systemic eCIRP, IL-6, and TNFα levels by ELISA. (D-F) Serum was analyzed for ALT, AST, and LDH by calorimetric assays. (G-I) Lung tissue was frozen and mRNA expression of IL-6, TNFα, and IL-1β was measured by PCR and MPO by calorimetric assay. (J) Lung tissue was frozen and analyzed for MPO levels by calorimetric assay. (K) Lungs were sectioned, imaged for histologic injury by H&E staining, and performed lung injury scoring. (L) Sectioned lungs were stained for TUNEL positive cells and cell counts were quantified. […] Data are expressed as mean±SEM and compared by one-way ANOVA and SNK test. *p<0.05 vs. sham, #p<0.05 vs. CLP vehicle. (M) WT mice subjected to CLP-induced sepsis with MOP3 treatment (10 μg/kg) or vehicle (volume equivalent) and monitored for 10 days for humane endpoints, and differences in survival were determined (N=17 per group). *p<0.05 vs. CLP vehicle. […]
Data represented in the figures are expressed as mean±SEM. […] Survival rates were analyzed by the Kaplan-Meier estimator and compared using a log-rank test. Significant differences between groups were determined by Tukey's method. […]

Residues, ends and D or L forms follow the SMILES beside them.

One may read the mortality as the share of the test organisms that died. Low readings indicate a weak lethal effect, high ones a strong lethal effect. The compound `CC(C)C[C@H](NC(=O)[C@H](CC(N)=O)NC(=O)[C@H](Cc1c[nH]c2ccccc12)NC(=O)[C@@H](NC(=O)[C@H](CCCCN)NC(=O)[C@H](Cc1ccc(O)cc1)NC(=O)[C@H](CO)NC(=O)[C@H](CO)NC(=O)[C@H](CO)NC(=O)[C@H](CC(=O)O)NC(=O)CNC(=O)[C@@H](N)CCCNC(=N)N)[C@@H](C)O)C(=O)N[C@@H](CCCNC(=N)N)C(=O)N[C@@H](C)C(=O)N[C@@H](Cc1ccccc1)C(=O)NCC(=O)N[C@@H](Cc1c[nH]c2ccccc12)C(=O)N[C@@H](Cc1ccc(O)cc1)C(=O)O` [MOP3, RGDSSSYKTWNLRAFGWY] (H-RGDSSSYKTWNLRAFGWY-OH; N-terminus and C-terminus assumed) returned a mortality (CLP, one-time MOP3 dose, monitored 10 days, N=17 per group) of 17.6%. Moreover, for the setting “septic mice, no off-target, pharmacokinetic or toxicity studies performed”, the observed phenotypic effects result is recorded as “lack of observed phenotypic effects”.
